Test results reported in patent US20220264878A1, “HERBICIDAL COMPOSITION CONTAINING R-TYPE PYRIDYLOXY CARBOXYLIC ACID DERIVATIVE AND USE THEREOF” (Qingdao Kingagroot Chemical Compound Co., Ltd., priority 2019, published 2022).

Legend:
Type in all cases: in vivo
Conyza Canadensis = assay: Post-emergence foliage spray on Conyza Canadensis with a height of 10 cm, fresh weight inhibition (Tables 207-216; 24 days); settings: 24 days after treatment
Method: (§1) The above weeds were cultivated by a pot culture method. […] Full and uniform weed seeds were selected, soaked in warm water at 25° C. for 6 hours, and germinated in a 28° C. biochemical incubator (darkness). The weed seeds that had just germinatedwere evenly placed on the surface of the soil and then covered with 0.5-1 cm soil according to the sizes of seeds.
(§2) The technical materials were all dissolved in acetone, and diluted with an aqueous solution containing 0.1% emulsifier Tween-80. The dilution is performed as required.
(§3) A ratio of the active ingredient A to the active ingredient B and amounts thereof in each group depends on the characteristics and toxicity of the two agents, as well as the main application purpose of a corresponding formulation. Based on the pre-tests in this study, the dosage of the active ingredient A and B applied alone and in combination were shown in the tables. Water containing the solvent and emulsifier same with the above groups but free of the agents was used as a blank control.
In the stage of weeds with 6˜8 leaves, the weeds were thinned out to maintain 3 weeds per pot and 30 weeds for each treatment, then continued to be cultured to Conyza Canadensis with a height of 10 cm, and treated.
(§4) The well-cultured weeds were evenly placed on a platform with an area of 0.5 m^2, and a solution of agents was sprayed on the stems and leaves thereof by the 3WP-2000-type walking spray tower at a dosage of 450 kg/ha and at a spray pressure of 0.3 MPa. After all the solution was sprayed, the valve was closed. After 30 seconds, the door of the spray tower was opened, and the nutritional bowl was taken out. Then the valve was opened, and the spray tube was cleaned by spraying 50 ml of water.
(§5) A pot-culture method was employed. For the cultivation of weeds, please refer to the Section 1.1), and “Pesticide guidelines for laboratory bioactivity tests—herbicides”. As to a method for applying agents, please refer to the section 2.3.2), that is, a foliage treatment was employed. After the treatment, the weeds were routinely cultured in a greenhouse.
(§6) A method for investigating absolute number was employed, wherein whole seedlings of survival weeds were cut off with a blade along the soil surface, and the fresh weight of the weeds was weighed with an analytical balance. For dead weeds, the fresh weight thereof was zero.
Wherein, in the formula, X represented the fresh weight inhibition rate of the active ingredient A in a dosage of P, and Y represented the fresh weight inhibition rate of the active ingredient B in a dosage of Q.

Alopecurus japonicus = assay: Post-emergence foliage spray, pot culture, fresh weight inhibition (Tables 1-48, 51-98, 101-148; 24 days)
From the text: (§7) Table 1-48, 51-98, 101-148: Echinochloa crusgalli var. zelayensis, Eclipta prostrate, Galium aparine L., Alopecurus aequalis, Alopecurus japonicus, Lindernia procumbens, Veronica persica^1, Malachium aquaticum, Beckmannia syzigachne, Stellaria media were collected in Huai'an of Jiangsu Province; Commelina communis, Sonchus arvensis, Setaria glauca, Chloris virgata, Setaria faberi, Sonchus oleraceus L., Echinochloa oryzoides, Cirsium setosum, Xanthium strumarium were collected in Qiqiha'er of Heilongjiang Province; Sinapis arvensis, Veronica persica^2 were collected in Zhumadian of Henan Province; Ludwigia prostrate, Ammannia arenaria were collected in Zhuji of Zhejiang Province; Amaranthus retrojlexus, Descurainia sophia, Digitaria sanguinalis, Setaria viridis, Conyza Canadensis, Capsella bursa-pastoris, Eleusine indica, Ipomoea purpurea, Abutilon theophrasti, Chenopodium album, Acalypha australis, Solanum nigrum were collected in Qingdao of Shandong Province; Echinochloa caudate were collected in Pingluo of Ningxia Province.
as §1
(§8) The culture was carried out in a controllable sunlight greenhouse at 20 to 30° C., in natural light, and relative humidity of 57% to 72%.
as §2, §3
(§9) Table 1-48, 51-98, 101-148, 151-206: […] per treatment, that is, a total of 60 weeds were treated in one treatment.
(§10) Table 1-48, 51-98, 101-148: The agents were used for only once in the experiment. In the stage of weeds with 3˜4 leaves, the weeds were thinned out to maintain 15 weeds per pot and 45 weeds for each treatment, then continued to be cultured to 5˜6 leaves stage of grassy weeds, 6˜7 leaves stage of broadleaf weeds, and treated.
as §4, §5, §6
(§11) Table 1-48, 51-98, 101-148, 207-216: The investigation was performed after 24 days of the treatment for only once.

Beckmannia syzigachne = assay: as above
From the text: as §7, §1, §8, §2, §3, §9, §10, §4, §5, §6, §11

Cc1cc(Cl)ccc1OCC(=O)O [MCPA] was tested, and the “Control effect (%) of B applied alone in corresponding dose” value (shortened to “Control effect (%) of B applied alone”) (Conyza Canadensis; B alone 75 g a.i./ha) was 18.8%.
Nc1cc(Cl)nc(C(=O)O)c1Cl [aminopyralid] was tested, and the “Control effect (%) of B applied alone” value (Conyza Canadensis; B alone 15 g a.i./ha) was 19.0% and the “Control effect (%) of B applied alone” value (Conyza Canadensis; B alone 30 g a.i./ha) was 40.7%.
In the case of Cc1ccc(NC(=O)N(C)C)cc1Cl [chlorotoluron], the “Control effect (%) of B applied alone” value (Alopecurus japonicus; chlorotoluron 75 g a.i./ha) is reported as 2.9%, the “Control effect (%) of B applied alone” value (Alopecurus japonicus; chlorotoluron 150 g a.i./ha) is reported as 13.1% and the “Control effect (%) of B applied alone” value (Alopecurus japonicus; chlorotoluron 300 g a.i./ha) is reported as 39.8%. The “Control effect (%) of B applied alone” value (Alopecurus japonicus; chlorotoluron 600 g a.i./ha) was 71.9%, the “Control effect (%) of B applied alone” value (Beckmannia syzigachne; B 75 g a.i./ha) was 5.5% and the “Control effect (%) of B applied alone” value (Beckmannia syzigachne; B 150 g a.i./ha) was 16.8%. For the same compound, the “Control effect (%) of B applied alone” value (Beckmannia syzigachne; B 300 g a.i./ha) was 41.1% and the “Control effect (%) of B applied alone” value (Beckmannia syzigachne; B 600 g a.i./ha) was 72.1%.
For C#CCOC(=O)[C@@H](C)Oc1ccc(Oc2ncc(Cl)cc2F)cc1 [clodinafop-propargyl], the “Control effect (%) of B applied alone” value (Alopecurus japonicus; clodinafop-propargyl 3.75 g a.i./ha) was 3.0%, the “Control effect (%) of B applied alone” value (Alopecurus japonicus; clodinafop-propargyl 7.5 g a.i./ha) was 10.6% and the “Control effect (%) of B applied alone” value (Alopecurus japonicus; clodinafop-propargyl 15 g a.i./ha) was 57.8%. The “Control effect (%) of B applied alone” value (Alopecurus japonicus; clodinafop-propargyl 30 g a.i./ha) was 79.9%, the “Control effect (%) of B applied alone” value (Beckmannia syzigachne; B 3.75 g a.i./ha) was 10.3% and the “Control effect (%) of B applied alone” value (Beckmannia syzigachne; B 7.5 g a.i./ha) was 20.1%. For the same compound, the “Control effect (%) of B applied alone” value (Beckmannia syzigachne; B 15 g a.i./ha) was 59.6% and the “Control effect (%) of B applied alone” value (Beckmannia syzigachne; B 30 g a.i./ha) was 81.2%.
With O=C(O)c1nc(Cl)ccc1Cl [clopyralid] the “Control effect (%) of B applied alone” value (Conyza Canadensis; B alone 15 g a.i./ha) was 6.1%, the “Control effect (%) of B applied alone” value (Conyza Canadensis; B alone 30 g a.i./ha) was 29.8% and the “Control effect (%) of B applied alone” value (Conyza Canadensis; B alone 60 g a.i./ha) was 53.5%. The “Control effect (%) of B applied alone” value (Conyza Canadensis; B alone 120 g a.i./ha) was 82.8%.
In the case of Cn1[nH]c(C2CC2)c(C(=O)c2ccc(C(F)(F)F)c(N3CCCCC3=O)c2Cl)c1=O [cypyrafluone], the “Control effect (%) of B applied alone” value (Alopecurus japonicus; cypyrafluone 18.75 g a.i./ha) is reported as 4.0%, the “Control effect (%) of B applied alone” value (Alopecurus japonicus; cypyrafluone 37.5 g a.i./ha) is reported as 24.9% and the “Control effect (%) of B applied alone” value (Alopecurus japonicus; cypyrafluone 75 g a.i./ha) is reported as 54.8%. The “Control effect (%) of B applied alone” value (Alopecurus japonicus; cypyrafluone 150 g a.i./ha) was 81.3%, the “Control effect (%) of B applied alone” value (Beckmannia syzigachne; B 18.75 g a.i./ha) was 9.0% and the “Control effect (%) of B applied alone” value (Beckmannia syzigachne; B 37.5 g a.i./ha) was 14.2%. For the same compound, the “Control effect (%) of B applied alone” value (Beckmannia syzigachne; B 75 g a.i./ha) was 56.3% and the “Control effect (%) of B applied alone” value (Beckmannia syzigachne; B 150 g a.i./ha) was 81.8%.
COc1c(Cl)ccc(Cl)c1C(=O)O [dicamba] was tested, and the “Control effect (%) of B applied alone” value (Conyza Canadensis; B alone 150 g a.i./ha) was 58.7%.
COc1c(Cl)ccc(-c2nc(C(=O)OCc3ccccc3)c(Cl)c(N)c2F)c1F [florpyrauxifen benzyl] was tested, and the “Control effect (%) of B applied alone” value (Conyza Canadensis; B alone 1.875 g a.i./ha) was 3.5% and the “Control effect (%) of B applied alone” value (Conyza Canadensis; B alone 7.5 g a.i./ha) was 47.4%.
Nc1c(Cl)c(F)nc(OCC(=O)O)c1Cl [fluroxypyr] was tested, and the “Control effect (%) of B applied alone” value (Conyza Canadensis; B alone 37.5 g a.i./ha) was 5.8%.
COC(=O)c1nc(-c2ccc(Cl)c(OC)c2F)cc(N)c1Cl [halauxifen-methyl] was tested, and the “Control effect (%) of B applied alone” value (Conyza Canadensis; B alone 3.75 g a.i./ha) was 20.5% and the “Control effect (%) of B applied alone” value (Conyza Canadensis; B alone 15 g a.i./ha) was 81.5%.
CC(C)c1ccc(NC(=O)N(C)C)cc1 [isoproturon] was tested, and the “Control effect (%) of B applied alone” value (Alopecurus japonicus; isoproturon 75 g a.i./ha) was 2.5%, the “Control effect (%) of B applied alone” value (Alopecurus japonicus; isoproturon 150 g a.i./ha) was 11.4% and the “Control effect (%) of B applied alone” value (Alopecurus japonicus; isoproturon 300 g a.i./ha) was 56.5%. The “Control effect (%) of B applied alone” value (Alopecurus japonicus; isoproturon 600 g a.i./ha) was 75.9%, the “Control effect (%) of B applied alone” value (Beckmannia syzigachne; B 75 g a.i./ha) was 7.0% and the “Control effect (%) of B applied alone” value (Beckmannia syzigachne; B 150 g a.i./ha) was 15.9%. The “Control effect (%) of B applied alone” value (Beckmannia syzigachne; B 300 g a.i./ha) was 57.6% and the “Control effect (%) of B applied alone” value (Beckmannia syzigachne; B 600 g a.i./ha) was 76.6%.
In the case of Nc1c(Cl)c(Cl)nc(C(=O)O)c1Cl [picloram], the “Control effect (%) of B applied alone” value (Conyza Canadensis; B alone 7.5 g a.i./ha) is reported as 5.0% and the “Control effect (%) of B applied alone” value (Conyza Canadensis; B alone 60 g a.i./ha) is reported as 69.4%.
CCc1cc(C)cc(CC)c1-c1c(OC(=O)C(C)(C)C)n2n(c1=O)CCOCC2 [pinoxaden] was tested, and the “Control effect (%) of B applied alone” value (Alopecurus japonicus; pinoxaden 3.75 g a.i./ha) was 2.5%, the “Control effect (%) of B applied alone” value (Alopecurus japonicus; pinoxaden 7.5 g a.i./ha) was 12.1% and the “Control effect (%) of B applied alone” value (Alopecurus japonicus; pinoxaden 15 g a.i./ha) was 41.7%. The “Control effect (%) of B applied alone” value (Alopecurus japonicus; pinoxaden 30 g a.i./ha) was 71.8%, the “Control effect (%) of B applied alone” value (Beckmannia syzigachne; B 3.75 g a.i./ha) was 7.9% and the “Control effect (%) of B applied alone” value (Beckmannia syzigachne; B 7.5 g a.i./ha) was 18.0%. The “Control effect (%) of B applied alone” value (Beckmannia syzigachne; B 15 g a.i./ha) was 43.5% and the “Control effect (%) of B applied alone” value (Beckmannia syzigachne; B 30 g a.i./ha) was 72.6%.
In the case of O=C(O)c1c(Cl)ccc2cc(Cl)cnc12 [quinclorac], the “Control effect (%) of B applied alone” value (Conyza Canadensis; B alone 30 g a.i./ha) is reported as 11.7%, the “Control effect (%) of B applied alone” value (Conyza Canadensis; B alone 60 g a.i./ha) is reported as 28.8% and the “Control effect (%) of B applied alone” value (Conyza Canadensis; B alone 120 g a.i./ha) is reported as 53.7%. For the same compound, the “Control effect (%) of B applied alone” value (Conyza Canadensis; B alone 240 g a.i./ha) was 76.2%.
With O=C(O)COc1nc(Cl)c(Cl)cc1Cl [triclopyr] the “Control effect (%) of B applied alone” value (Conyza Canadensis; B alone 300 g a.i./ha) was 78.4%.
